We go through one compound from US20080104722A1, “DISEASE MODEL ANIMALS OF METABOLIC SYNDROME AND A METHOD OF SCREENING PREVENTIVE AND THERAPEUTIC AGENTS FOR METABOLIC SYNDROME USING THE SAME” (REDOX BIOSCIENCE INC., priority 2006, published 2008).

The subject of one assay is TBP-2^−/− mice. Briefly: Glucose or oleic acid supplementation in drinking water while deprived of other food, TBP-2 knockout mice. The assay is classed as in vivo. Here is the method:
Blood was collected from the tail veins. Triglyceride concentrations were measured using a Wako Triglyceride Test kit according to the manufacturer's instructions (Wako Pure Chemical Industries, Ltd.). Serum insulin levels were quantified using a Mouse Insulin ELISA kit (Shibayagi Co. Ltd.). The other blood assays were performed by Falco Biosystems Ltd. The liver was removed under anesthesia at appropriate time points, and paraffin sections were prepared. Standard hematoxylin-eosin and Oil Red O staining was performed.
(§1) Glucose and fatty acids are known to be the major energy sources from foods. The anomaly observed in TBP-2^−/− mice strongly indicates the occurrence of nutritional dysmetabolism. To examine this hypothesis, these mice were housed with free access to 20% glucose or 10% oleic acid in drinking water, while deprived of other food.

A further assay has as its system Wild type mice. Briefly: Glucose or oleic acid supplementation in drinking water while deprived of other food, wild type mice. Format: in vivo, mouse. As to conditions: 20% glucose or 10% oleic acid in drinking water, deprived of other food (data not shown).
Source text: as §1

As to `CCCCCCCC/C=C\CCCCCCCC(=O)O` [oleic acid], the “rescue (survival) of TBP-2^−/− mice” value with TBP-2^−/− mice (10% oleic acid in drinking water, deprived of other food (FIG. 9A)) is “not rescued”. The “symptoms compared with fasted TBP-2^−/− mice” value with TBP-2^−/− mice (oleic acid supplementation (data not shown)) is reported as “identical symptoms”. The “survival of wild type mice” value in the assay on Wild type mice is “able to survive”.
